“Also recorded” adds a separate entry of the source. Ends that are not written are not given here. Peptide text beside a SMILES is read from it. * marks the point of attachment. Cbz = O=C(OCc1ccccc1)*
Key:
[1] = system: CRM1-mediated nuclear export of hDOT1L NESs fused with EGFP; type: cell-based, human; details: 20 nM, eight hours after treatment, U2OS cells, FIG. 10E
Protocol: To further characterize the nuclear export ability of the three NESs identified, it was determined whether the NESs were involved in active nuclear export mediated by the CRM1 (chromosomal region maintenance) pathway. CRM1 was initially identified as a S. pombe protein whose mutation affects higher order chromosome structure (Adachi and Yanagida (1989) J. Cell Biol. 108:1195-1207). Subsequent studies indicate that CRM1 is an export receptor for Leucine-rich nuclear export signals (Fornerod, et al. (1997) Cell 90:1051-1060; Ossareh-Nazari, et al. (1997) Science 278:141-144; Stade, et al. (1997) Cell 90:1041-1050). […] To investigate the effect of LMB treatment on the nuclear export ability of the NESs, U2OS cells were transfected with constructs encoding each of the three NESs fused with EGFP in the presence or absence of 20 nM of LMB. Eight hours after LMB treatment, green fluorescence was observed under a microscope in living cells.

[2] = system: proteasome (stability of ubiquitinated FLAG-Tat and FLAG-hDOT1L); experiment: In vivo ubiquitination assay in 293T cells with proteasome inhibitor; type: cell-based, human; parameters: dose or concentration left out as unconfirmed; details: HA-Ub co-expressed
Protocol: pcDNA3b-FLAG®-hDOT1L and pcDNA3b-FLAG®-Tat were transfected to 293T cells with or without pHA-Ubiquitin (Ub) by using FUGENE™ 6 transfection reagent (Roche Diagnostics, Indianapolis, Ind.). Twenty-four hours after transfection, MG132 was added at the final concentration of […], and the cells were cultured for […]. Cells were then lysed with lysis buffer (50 mM Tris-HCl, pH 7.5, 0.5 mM EDTA, 1% SDS, and 1 mM DTT), and boiled for 10 minutes before centrifugation at 14,000 rpm for 10 minutes. The supernatant was diluted by 10-fold with NP40 lysis buffer (50 mM Tris-HCl, pH 7.5, 150 mM NaCl, 0.1% NP40, 50 mM NaF, 10% glycerol, 1 mM DTT, and 1 mM PMSF), and incubated with […] of FLAG® (M2) antibody for 4 hours at 4° C. Protein G beads were then added and incubated further for one hour. The beads were washed three times with lysis buffer containing 0.5% of NP40 before eluting the protein with SDS sample buffer for SDS-PAGE analysis.
Protein ubiquitination is the major pathway for rapid protein degradation (Pickart (2001) Annu. Rev. Biochem 70:503-533). Toward this end, we asked whether hDOT1L is subjected to ubiquitination. We transfected 293T cells with a construct encoding FLAG®-hDOT1L with or without co-transfection of a construct encoding HA-tagged ubiquitin. […]

hDOT1L Δ(376-390) = molecular target: T1, hDOT1L Δ(376-390) (Homo sapiens, UniProt Q8TEK3, DEL376-390); experiment: Histone methyltransferase assay with peptide competition; type: biochemical; details: 1.5, 15 or 150 μM peptide; oligo-nucleosome substrate; FIG. 6D lanes 5-8
T1 construct: GST (N, cleaved yes); made in house; host or cells: E. coli
Protocol: (§1) Histone methyltransferase assay was performed using established methods (Wang, et al. (2001) Science 293:853-857). Oligo-nucleosomes purified from HeLa cells or chicken blood cells were quantified and equal concentrations were used in each assay. Briefly, recombinant hDOT1L proteins (0.75 μM) were incubated with oligo-nucleosomes (1.5 μM) in reactions containing 20 mM Tris-HCl (pH 8.0), 4 mM EDTA, 1 mM PMSF, 0.5 mM DTT, and 0.5 μL ^3H-SAM (15 Ci/mM; NEN™ Life Science Products) for 1 hour at 30° C. For peptide competition, 1.5 μM, 15 μM, or 150 μM of positively charged C-RS10 peptide ([…] SEQ ID NO:20) were added to reactions. Reactions were stopped by addition of 7 μL of 5×SDS loading buffer and proteins were separated in an 18% SDS-PAGE. Following stain and destain of COMMASSIE® Blue, gels were treated with Rapid Autoradiography Enhancer (NEN™ Life Science Products, Boston Mass.) for 40 minutes, dried, and exposed to X-ray films. For quantitation, gel slices were excised and counted with scintillation counting. Two independent experiments were performed at the same time and average ^3H (CPM) values were used in the figures.

hDOT1L(1-416) = molecular target: T2, hDOT1L(1-416) (Homo sapiens, UniProt Q8TEK3); experiment: as above; type: biochemical; details: 1.5, 15 or 150 μM peptide; oligo-nucleosome substrate; FIG. 6D lanes 1-4
T2 construct: The plasmid expressing the first 416 residues of hDOT1L, pGEX-KG/hDOT1L(1-416); GST (N, cleaved yes); made in house; host or cells: E. coli
Protocol: as §1

[3] = system: hDOT1L binding to HeLa mono-nucleosomes; experiment: Gel mobility shift assay (mono-nucleosome binding) with competitor peptide; parameters: species or system human; details: HeLa mono-nucleosomes 1.5 μM
Protocol: Different amount of recombinant hDOT1L proteins were incubated with HeLa mono-nucleosomes (1.5 μM) under the same conditions as those in the histone methyltransferase assay, except that SAM is omitted. Following incubation for 1 hour at 30° C., samples were resolved in a 1.8% agarose gel and visualized under UV by ethidium bromide staining.
We next examined mono-nucleosome binding of hDot1(1-416) and several of its truncation variants by gel mobility shift assays (GSMA). […] Consistent with this, we could detect strong, but apparently non-sequence specific, binding of hDOT1L(1-416) with DNA extracted from mono-nucleosomes. To further probe the nature of hDOT1L-nucleosome interaction, we used a 21-residue highly charged peptide, C-RS10, containing 10 tandem repeats of arginine and serine as a competitor in our nucleosome binding and HMTase assays.

T2 sequence (Q8TEK3 1-416): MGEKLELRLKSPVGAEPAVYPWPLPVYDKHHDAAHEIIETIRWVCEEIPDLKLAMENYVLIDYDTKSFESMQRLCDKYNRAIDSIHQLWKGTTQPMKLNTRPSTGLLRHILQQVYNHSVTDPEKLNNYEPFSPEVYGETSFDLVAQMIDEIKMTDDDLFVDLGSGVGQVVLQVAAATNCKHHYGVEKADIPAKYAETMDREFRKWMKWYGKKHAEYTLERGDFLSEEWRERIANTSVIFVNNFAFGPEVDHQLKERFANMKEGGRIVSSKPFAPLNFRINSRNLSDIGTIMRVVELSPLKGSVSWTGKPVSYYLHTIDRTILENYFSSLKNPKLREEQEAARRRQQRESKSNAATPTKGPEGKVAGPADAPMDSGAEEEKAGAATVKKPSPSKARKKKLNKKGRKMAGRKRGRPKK
T1 sequence (Q8TEK3 with tags, fused parts or gaps DEL376-390): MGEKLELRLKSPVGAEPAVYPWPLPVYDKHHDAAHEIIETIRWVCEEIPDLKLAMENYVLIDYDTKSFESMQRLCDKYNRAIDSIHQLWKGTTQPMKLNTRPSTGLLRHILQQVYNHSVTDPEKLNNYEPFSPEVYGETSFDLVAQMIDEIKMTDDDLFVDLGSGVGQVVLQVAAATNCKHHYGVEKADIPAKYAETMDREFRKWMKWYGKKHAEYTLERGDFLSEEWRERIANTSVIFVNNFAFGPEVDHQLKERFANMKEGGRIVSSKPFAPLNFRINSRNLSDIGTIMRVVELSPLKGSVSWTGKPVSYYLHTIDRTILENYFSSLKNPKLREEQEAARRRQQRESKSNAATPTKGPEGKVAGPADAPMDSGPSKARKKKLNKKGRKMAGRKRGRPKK

Compound: CCC(=C/[C@H](C)C/C=C/C(C)=C/[C@@H](C)C(=O)[C@@H](C)[C@H](O)[C@@H](C)C/C(C)=C/C(=O)O)/C=C/[C@@H]1OC(=O)C=C[C@@H]1C [LMB, Leptomycin B]
- Effect on nuclear export by NES1, NES2, NES3 fused with EGFP [1]: prevented nuclear export by all the three NESs; also recorded: can be blocked

Compound: CC(C)C[C@@H](C=O)NC(=O)[C@H](CC(C)C)NC(=O)[C@H](CC(C)C)NC(=O)OCc1ccccc1 [MG132] (Cbz-Leu-Leu-Leu-aldehyde)
- Stabilization of ubiquitinated FLAG-hDOT1L ([2]; FIG. 8A lanes 4 and 5): did not appear to stabilize
- Stabilization of ubiquitinated Tat ([2]; FIG. 8A lanes 6 and 7): successfully stabilized ubiquitinated Tat

Compound: CRSRSRSRSRSRSRSRSRSRS
- HMTase activity of Δ(376-390) in presence of competitor peptide (hDOT1L Δ(376-390)): effectively competed
- HMTase activity of hDOT1L(1-416) in presence of competitor peptide (hDOT1L(1-416)): effectively competed
- Effect of peptide on mono-nucleosome migration in GSMA [3]: prevented mono-nucleosomes from entering the gel well

Source: patent publication US9534259B2, “DOT1 histone methyltransferases as a target for identifying therapeutic agents for leukemia” (The University of North Carolina at Chapel Hill, priority 2003, dated 2017)
